The values below come from patent US4066753A, “Neomycin and paromomycin derivatives” (Canadian Patents and Development Limited, priority 1976, dated 1978).

Values after ≈ are worked out from the molar mass of the structure shown. Read-outs that look alike come from different tables or passages of the source.

In data set [1] the test system is S. pyogenes R 353. Briefly: IN VITRO antibacterial activity, S. pyogenes R 353. The conditions noted are these: Streptococcus pyogenes. It is filed as cell-based. On the procedure:
(§1) In the Tables above MIC stands for minimum inhibitory concentration and
(§2) the results were obtained by providing halving dilutions of the test
(§3) compound in nutrient broth (concentrations usually range from 1/10,000 to
(§4) 1/320,000). These solutions are inoculated with the test organism,
(§5) incubated for 24 hours at 37° C and then examined for the presence
(§6) of growth. A test compound found to have a minimum inhibitory
(§7) concentration (MIC) of 1/160,000 is generally considered as a lead.

Data set [2] relates to Pr. vulgaris 316. Put plainly: IN VITRO antibacterial activity, Pr. vulgaris 316. It is filed as cell-based. On the procedure: as §1, §2, §3, §4, §5, §6, §7
Data set [3] has as its system S. marcesceus 854 (ATCC → 103). Briefly: IN VITRO antibacterial activity, S. marcesceus 854 (ATCC → 103). In kind it is cell-based. How it is done: as §1, §2, §3, §4, §5, §6, §7
In data set [4] the test system is S. fecalis 353. Put plainly: IN VITRO antibacterial activity, S. fecalis 353. It is filed as cell-based. On the procedure:
as §1, §2, §3, §4, §5, §6, §7

Data set [5] relates to Kl. pneumoniae 855 (ATCC 10081). Put plainly: IN VITRO antibacterial activity, Kl. pneumoniae 855 (ATCC 10081). The conditions noted are these: Klebsiella pneumoniae, ATCC10081, nutrient broth, 24 hours at 37° C. It is filed as cell-based. How it is done: as §1, §2, §3, §4, §5, §6, §7
In data set [6] the test system is P. aeruginosa 359. Put plainly: IN VITRO antibacterial activity, P. aeruginosa 359. It is filed as cell-based. How it is done: as §1, §2, §3, §4, §5, §6, §7
Data set [7] concerns S. pullorum 358. Put plainly: IN VITRO antibacterial activity, S. pullorum 358. It is filed as cell-based. The note with it: Salmonella enterica. How it is done:
as §1, §2, §3, §4, §5, §6, §7

Data set [8] has as its system A. aerogenes 357. Briefly: IN VITRO antibacterial activity, A. aerogenes 357. It is filed as cell-based. How it is done: as §1, §2, §3, §4, §5, §6, §7
Data set [9] deals with Pr. mirabilis 360. Put plainly: IN VITRO antibacterial activity, Pr. mirabilis 360. It is filed as cell-based. On the procedure:
as §1, §2, §3, §4, §5, §6, §7

The subject of data set [10] is S. pyogenes S B352. Put plainly: IN VITRO antibacterial activity, S. pyogenes S B352. It is filed as cell-based. The note with it: Streptococcus pyogenes. On the procedure: as §1, §2, §3, §4, §5, §6, §7
The test system of data set [11] is E. Coli 198 (ATCC 1/229). Put plainly: IN VITRO antibacterial activity, E. Coli 198 (ATCC 1/229). The conditions noted are these: Escherichia coli. In kind it is cell-based. How it is done:
as §1, §2, §3, §4, §5, §6, §7

The subject of data set [12] is P. aeruginosa 377. Put plainly: IN VITRO antibacterial activity against resistant organisms, P. aeruginosa 377. In kind it is cell-based. How it is done:
as §1, §2, §3, §4, §5, §6, §7

For data set [13], the system named is E. coli B1002. Put plainly: IN VITRO antibacterial activity against resistant organisms, E. coli B1002. It is filed as cell-based. On the procedure:
as §1, §2, §3, §4, §5, §6, §7

Data set [14] can be described thus: in vivo. The note with it: mouse, iv, in mice (i.v), acute toxicity.
Data set [15] relates to P. aeruginosa 87442. Briefly: IN VITRO antibacterial activity against resistant organisms, P. aeruginosa 87442. In kind it is cell-based. How it is done:
as §1, §2, §3, §4, §5, §6, §7

The test system of data set [16] is strains of E. Coli resistant to neomycin and paromomycin. Put plainly: Antibacterial activity against resistant E. Coli. In kind it is cell-based. How it is done: as §1, §2, §3, §4, §5, §6, §7
Data set [17] has as its system E. coli B989. Put plainly: IN VITRO antibacterial activity against resistant organisms, E. coli B989. It is filed as cell-based. The note with it: resistant organism E. coli B989, nutrient broth, 24 hours at 37° C. How it is done:
as §1, §2, §3, §4, §5, §6, §7

The subject of data set [18] is strains of P. Aeruginosa resistant to neomycin B and paromomycin I. Put plainly: Antibacterial activity against resistant P. Aeruginosa. In kind it is cell-based. How it is done: as §1, §2, §3, §4, §5, §6, §7
Where [19] appears, read: Escherichia coli, read-out: MIC.

As for `NC[C@@H]1O[C@H](O[C@H]2[C@@H](O)[C@H](O[C@@H]3[C@@H](O)[C@H](N)C[C@H](N)[C@H]3O[C@H]3O[C@H](CN)[C@@H](O)[C@H](O)[C@H]3N)O[C@@H]2CO)[C@H](N)[C@@H](O)[C@@H]1O` [Neomycin B, neomycin B], the MIC (as a rule, the least concentration at which growth counts as inhibited) in [1] (R353, 24 h) was below 0.2 µg/mL; in [2] (Proteus vulgaris, 316, 24 h), below 0.2 µg/mL; in data set [3] (24 h), below 0.2 µg/mL; in data set [4] (24 h), 0.8 µg/mL (≈ 1.3 µM); in data set [5], below 0.2 µg/mL; in data set [6] (Pseudomonas aeruginosa, 359, 24 h) it was 0.8 µg/mL (≈ 1.3 µM). For the same compound, the MIC was below 0.2 µg/mL in data set [7] (PULLORUM, 24 h); below 0.2 µg/mL in [8] (Klebsiella aerogenes, 357, 24 h); 0.4 µg/mL (≈ 0.651 µM) in [9] (Proteus mirabilis, 360, 24 h); below 0.2 µg/mL in data set [10] (SB352, 24 h); 0.8 µg/mL (≈ 1.3 µM) in data set [11] (ATCC1, 24 h).
`NC[C@@H]1O[C@H](O[C@H]2[C@@H](O)[C@H](O[C@@H]3[C@@H](O)[C@H](N)C[C@H](N)[C@H]3O[C@H]3O[C@H](CN)[C@@H](O)[C@H](O)[C@H]3N)O[C@@H]2CN)[C@H](N)[C@@H](O)[C@@H]1O` [5"-Amino-5"-deoxyneomycin B, 5"-amino-5"-deoxyneomycin B]: the MIC was below 0.1 µg/mL in [1] (R353, S. pyogenes R 353, nutrient broth, 24 hours at 37° C, read-out: MIC); 0.8 µg/mL (≈ 1.3 µM) in data set [2] (Proteus vulgaris, Pr. vulgaris 316, nutrient broth, 24 hours at 37° C, read-out: MIC); 1.6 µg/mL (≈ 2.61 µM) in data set [12] (Pseudomonas aeruginosa, resistant organism P. aeruginosa 377, nutrient broth, 24 hours at 37° C, read-out: MIC); 0.4 µg/mL (≈ 0.652 µM) in data set [3] (S. marcesceus 854 (ATCC → 103), nutrient broth, 24 hours at 37° C, read-out: MIC); 3.2 µg/mL (≈ 5.21 µM) in data set [13] (Escherichia coli, resistant organism E. coli B1002, nutrient broth, 24 hours at 37° C, read-out: MIC); 0.8 µg/mL (≈ 1.3 µM) in data set [4] (S. fecalis 353, nutrient broth, 24 hours at 37° C, read-out: MIC). In addition, the MIC in data set [15] (Pseudomonas aeruginosa, resistant organism P. aeruginosa 87442, nutrient broth, 24 hours at 37° C, read-out: MIC) amounted to 0.8 µg/mL (≈ 1.3 µM); in data set [5], 0.4 µg/mL (≈ 0.652 µM); in data set [6] (Pseudomonas aeruginosa, P. aeruginosa 359, nutrient broth, 24 hours at 37° C, read-out: MIC) it was 1.6 µg/mL (≈ 2.61 µM); in [7] (S. pullorum 358, nutrient broth, 24 hours at 37° C, read-out: MIC), 0.4 µg/mL (≈ 0.652 µM); in data set [8] (Klebsiella aerogenes, A. aerogenes 357, nutrient broth, 24 hours at 37° C, read-out: MIC) it was 0.8 µg/mL (≈ 1.3 µM); in [9] (Proteus mirabilis, Pr. mirabilis 360, nutrient broth, 24 hours at 37° C, read-out: MIC), 0.8 µg/mL (≈ 1.3 µM). Also, the MIC is below 0.1 µg/mL in data set [10] (SB352, S. pyogenes S B352, nutrient broth, 24 hours at 37° C, read-out: MIC); 0.8 µg/mL (≈ 1.3 µM) in data set [11] (ATCC1, E. Coli 198 (ATCC 1/229), nutrient broth, 24 hours at 37° C, read-out: MIC); 1.6 µg/mL (≈ 2.61 µM) in data set [17] (setting [19]). In data set [14], the LD50 (in general, the dose at which mortality reaches 50%) is 60 to 80 mg/kg. Besides, in data set [16], the “antibacterial activity against resistant E. Coli” value is on record as “particularly effective”. For the same compound, in data set [18], the “antibacterial activity against resistant P. Aeruginosa” value is on record as “particularly effective”.
Gentamycin: the minimal inhibitory concentration (MIC) is below 0.2 µg/mL in data set [12] (resistant organism P. aeruginosa 377, nutrient broth, 24 hours at 37° C); below 0.2 µg/mL in data set [13] (resistant organism E. coli B1002, nutrient broth, 24 hours at 37° C); below 0.2 µg/mL in data set [15] (resistant organism P. aeruginosa 87442, nutrient broth, 24 hours at 37° C); below 0.2 µg/mL in data set [17].
Consider `NC[C@H]1O[C@H](O[C@H]2[C@H](O)[C@@H](O[C@H]3O[C@H](CO)[C@@H](O)[C@H](N)[C@H]3O)[C@H](N)C[C@@H]2N)[C@H](O)[C@@H](O)[C@@H]1O` [Kanamycin], for which the minimal inhibitory concentration (MIC) in data set [12] (Pseudomonas aeruginosa, 377, 24 h) was 3.2 µg/mL (≈ 6.6 µM); in [13] (Escherichia coli, B1002, 24 h), below 100 µg/mL; in [15] (Pseudomonas aeruginosa, 87442, 24 h), 0.8 µg/mL (≈ 1.65 µM); in data set [17] (setting [19]) it was 100 µg/mL (≈ 206 µM).
